{"source": "ChEMBL document CHEMBL5696442", "about": "“Discovery of type II inhibitors of TGFβ-activated kinase 1 (TAK1) and mitogen-activated protein kinase kinase kinase kinase 2 (MAP4K2)” (J Med Chem, 2015)", "key": {"[1]": {"molecular_target": "Interleukin-1 receptor-associated kinase 3 (Homo sapiens) (UniProt Q9Y616)", "assay": "Inhibition of IRAK3 (unknown origin) at 1 uM by Ambit Kinomescan binding assay relative to control; values are per cent of control"}, "[2]": {"molecular_target": "Calcium/calmodulin-dependent protein kinase type II subunit gamma (Homo sapiens) (UniProt Q13555)", "sequence (Q13555 whole entry)": "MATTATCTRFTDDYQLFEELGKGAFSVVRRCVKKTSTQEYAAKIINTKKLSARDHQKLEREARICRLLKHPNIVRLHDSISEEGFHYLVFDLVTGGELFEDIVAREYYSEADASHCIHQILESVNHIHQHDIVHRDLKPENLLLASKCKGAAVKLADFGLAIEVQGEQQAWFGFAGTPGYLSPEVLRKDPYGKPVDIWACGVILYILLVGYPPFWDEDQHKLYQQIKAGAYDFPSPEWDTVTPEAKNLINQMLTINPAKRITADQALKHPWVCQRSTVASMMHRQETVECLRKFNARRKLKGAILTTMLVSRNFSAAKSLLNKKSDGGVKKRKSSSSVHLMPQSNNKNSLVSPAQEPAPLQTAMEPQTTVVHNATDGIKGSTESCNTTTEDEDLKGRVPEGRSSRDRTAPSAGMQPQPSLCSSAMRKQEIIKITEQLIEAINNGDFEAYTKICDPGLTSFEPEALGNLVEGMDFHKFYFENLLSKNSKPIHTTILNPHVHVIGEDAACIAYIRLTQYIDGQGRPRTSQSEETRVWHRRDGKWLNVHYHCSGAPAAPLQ", "assay": "Inhibition of CaMK2g Lys1 labeling site harbouring TSTQEYAAKIINTK in human A-375 cells at 0.05 uM by KiNativ Profiling analysis relative to control", "type": "cell-based"}, "[3]": {"molecular_target": "Ribosomal protein S6 kinase alpha-4 (Homo sapiens) (UniProt O75676)", "sequence (O75676 whole entry, looked up, the tested form may be a part)": "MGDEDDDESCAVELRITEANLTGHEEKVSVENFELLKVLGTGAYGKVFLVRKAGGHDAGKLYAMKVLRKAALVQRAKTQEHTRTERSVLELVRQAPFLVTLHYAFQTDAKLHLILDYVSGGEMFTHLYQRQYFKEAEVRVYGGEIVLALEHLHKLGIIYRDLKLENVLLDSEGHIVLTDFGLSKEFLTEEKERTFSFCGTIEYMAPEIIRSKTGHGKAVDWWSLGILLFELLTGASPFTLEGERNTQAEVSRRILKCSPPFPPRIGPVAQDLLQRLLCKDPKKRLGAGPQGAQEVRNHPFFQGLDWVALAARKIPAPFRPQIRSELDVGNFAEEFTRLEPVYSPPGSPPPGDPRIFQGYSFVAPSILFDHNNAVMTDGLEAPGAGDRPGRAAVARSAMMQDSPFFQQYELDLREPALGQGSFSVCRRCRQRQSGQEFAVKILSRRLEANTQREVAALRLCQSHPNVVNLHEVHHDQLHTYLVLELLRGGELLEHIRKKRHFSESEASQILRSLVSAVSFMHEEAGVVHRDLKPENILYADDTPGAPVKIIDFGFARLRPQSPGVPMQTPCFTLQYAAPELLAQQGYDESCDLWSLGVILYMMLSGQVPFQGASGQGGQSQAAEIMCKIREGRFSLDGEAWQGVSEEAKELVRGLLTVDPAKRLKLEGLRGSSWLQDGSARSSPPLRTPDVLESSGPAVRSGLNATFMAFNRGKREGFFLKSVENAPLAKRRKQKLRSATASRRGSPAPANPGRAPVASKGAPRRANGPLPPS", "assay": "Inhibition of C-terminal RPS6KA4 kinase domain 2 (unknown origin) at 1 uM by Ambit Kinomescan binding assay relative to control"}, "[4]": {"molecular_target": "Cyclin-dependent kinase 5 (Homo sapiens) (UniProt Q00535)", "sequence (Q00535 whole entry, looked up)": "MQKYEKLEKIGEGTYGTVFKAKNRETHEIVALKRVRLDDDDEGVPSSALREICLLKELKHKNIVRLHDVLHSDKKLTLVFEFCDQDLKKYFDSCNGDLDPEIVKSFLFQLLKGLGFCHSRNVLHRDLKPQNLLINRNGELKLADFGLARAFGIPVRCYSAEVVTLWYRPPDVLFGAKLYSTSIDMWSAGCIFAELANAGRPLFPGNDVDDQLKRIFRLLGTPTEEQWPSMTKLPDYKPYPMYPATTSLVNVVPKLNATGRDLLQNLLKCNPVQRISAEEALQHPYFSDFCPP", "assay": "Inhibition of CDK5 Lys1 labeling site in human A-375 cells at 0.5 uM by KiNativ Profiling analysis relative to control", "type": "cell-based"}, "[5]": {"molecular_target": "TGF-beta receptor type-2 (Homo sapiens) (UniProt P37173)", "assay": "Inhibition of TGFBR2 (unknown origin) at 10 uM by Ambit Kinomescan binding assay"}, "[6]": {"molecular_target": "Focal adhesion kinase 1 (Homo sapiens) (UniProt Q05397)", "sequence (Q05397 2-1052 limits assumed)": "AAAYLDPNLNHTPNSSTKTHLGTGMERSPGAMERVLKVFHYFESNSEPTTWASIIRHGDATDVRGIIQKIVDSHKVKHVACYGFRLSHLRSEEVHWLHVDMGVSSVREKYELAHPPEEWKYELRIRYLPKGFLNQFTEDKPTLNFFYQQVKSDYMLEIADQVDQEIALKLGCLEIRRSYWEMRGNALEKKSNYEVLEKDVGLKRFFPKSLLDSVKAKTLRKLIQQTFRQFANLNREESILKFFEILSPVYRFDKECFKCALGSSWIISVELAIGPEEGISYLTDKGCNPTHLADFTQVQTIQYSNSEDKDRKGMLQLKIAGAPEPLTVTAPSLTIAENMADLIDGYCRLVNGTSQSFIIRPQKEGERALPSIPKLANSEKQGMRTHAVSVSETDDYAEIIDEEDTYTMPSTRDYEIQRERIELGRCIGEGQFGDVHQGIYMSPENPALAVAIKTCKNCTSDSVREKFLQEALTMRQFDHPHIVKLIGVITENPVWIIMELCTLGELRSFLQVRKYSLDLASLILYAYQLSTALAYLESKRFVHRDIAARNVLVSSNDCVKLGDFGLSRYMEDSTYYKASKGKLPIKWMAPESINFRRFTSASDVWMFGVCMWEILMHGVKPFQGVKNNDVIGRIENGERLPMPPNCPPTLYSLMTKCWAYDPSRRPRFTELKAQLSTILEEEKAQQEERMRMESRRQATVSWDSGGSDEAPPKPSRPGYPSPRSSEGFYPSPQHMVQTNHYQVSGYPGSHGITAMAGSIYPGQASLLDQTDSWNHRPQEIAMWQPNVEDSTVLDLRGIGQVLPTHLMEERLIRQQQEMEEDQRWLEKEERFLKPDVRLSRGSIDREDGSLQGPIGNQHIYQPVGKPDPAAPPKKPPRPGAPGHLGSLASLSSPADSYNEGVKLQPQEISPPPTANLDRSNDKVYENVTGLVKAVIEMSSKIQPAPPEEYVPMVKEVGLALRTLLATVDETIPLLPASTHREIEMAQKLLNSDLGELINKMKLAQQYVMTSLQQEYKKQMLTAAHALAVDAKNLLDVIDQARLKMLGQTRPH", "assay": "Inhibition of FAK K1 labeling site in human Huh-7 cells at 10 uM by KiNativ Profiling analysis relative to control", "type": "cell-based"}, "[7]": {"molecular_target": "T1, Inhibitor of nuclear factor kappa-B kinase subunit epsilon (Homo sapiens) (UniProt Q14164)", "T1 sequence (whole entry)": "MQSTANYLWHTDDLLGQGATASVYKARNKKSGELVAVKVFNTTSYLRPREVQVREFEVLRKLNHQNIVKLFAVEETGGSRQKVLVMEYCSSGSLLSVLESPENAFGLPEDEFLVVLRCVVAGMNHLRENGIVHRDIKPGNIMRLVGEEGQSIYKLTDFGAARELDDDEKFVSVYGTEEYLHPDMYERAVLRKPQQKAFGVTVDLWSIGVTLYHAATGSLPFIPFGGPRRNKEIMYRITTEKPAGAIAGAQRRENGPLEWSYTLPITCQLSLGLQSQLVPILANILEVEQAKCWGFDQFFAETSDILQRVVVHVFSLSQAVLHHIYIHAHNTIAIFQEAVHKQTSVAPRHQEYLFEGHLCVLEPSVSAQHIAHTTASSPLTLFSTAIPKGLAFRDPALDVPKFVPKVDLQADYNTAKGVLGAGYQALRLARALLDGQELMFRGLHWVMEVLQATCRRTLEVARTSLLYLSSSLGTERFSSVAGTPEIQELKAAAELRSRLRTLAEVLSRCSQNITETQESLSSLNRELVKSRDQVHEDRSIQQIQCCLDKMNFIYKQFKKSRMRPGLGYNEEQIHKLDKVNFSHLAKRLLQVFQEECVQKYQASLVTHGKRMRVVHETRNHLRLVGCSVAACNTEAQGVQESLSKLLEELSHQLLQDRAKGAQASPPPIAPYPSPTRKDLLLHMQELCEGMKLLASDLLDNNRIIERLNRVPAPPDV", "assay": "Inhibition of IKKe Lys1 labeling site in human A-375 cells at 0.05 uM by KiNativ Profiling analysis relative to control", "type": "cell-based"}, "[8]": {"molecular_target": "Serine/threonine-protein kinase 10 (Homo sapiens) (UniProt O94804)", "sequence (O94804 whole entry, looked up)": "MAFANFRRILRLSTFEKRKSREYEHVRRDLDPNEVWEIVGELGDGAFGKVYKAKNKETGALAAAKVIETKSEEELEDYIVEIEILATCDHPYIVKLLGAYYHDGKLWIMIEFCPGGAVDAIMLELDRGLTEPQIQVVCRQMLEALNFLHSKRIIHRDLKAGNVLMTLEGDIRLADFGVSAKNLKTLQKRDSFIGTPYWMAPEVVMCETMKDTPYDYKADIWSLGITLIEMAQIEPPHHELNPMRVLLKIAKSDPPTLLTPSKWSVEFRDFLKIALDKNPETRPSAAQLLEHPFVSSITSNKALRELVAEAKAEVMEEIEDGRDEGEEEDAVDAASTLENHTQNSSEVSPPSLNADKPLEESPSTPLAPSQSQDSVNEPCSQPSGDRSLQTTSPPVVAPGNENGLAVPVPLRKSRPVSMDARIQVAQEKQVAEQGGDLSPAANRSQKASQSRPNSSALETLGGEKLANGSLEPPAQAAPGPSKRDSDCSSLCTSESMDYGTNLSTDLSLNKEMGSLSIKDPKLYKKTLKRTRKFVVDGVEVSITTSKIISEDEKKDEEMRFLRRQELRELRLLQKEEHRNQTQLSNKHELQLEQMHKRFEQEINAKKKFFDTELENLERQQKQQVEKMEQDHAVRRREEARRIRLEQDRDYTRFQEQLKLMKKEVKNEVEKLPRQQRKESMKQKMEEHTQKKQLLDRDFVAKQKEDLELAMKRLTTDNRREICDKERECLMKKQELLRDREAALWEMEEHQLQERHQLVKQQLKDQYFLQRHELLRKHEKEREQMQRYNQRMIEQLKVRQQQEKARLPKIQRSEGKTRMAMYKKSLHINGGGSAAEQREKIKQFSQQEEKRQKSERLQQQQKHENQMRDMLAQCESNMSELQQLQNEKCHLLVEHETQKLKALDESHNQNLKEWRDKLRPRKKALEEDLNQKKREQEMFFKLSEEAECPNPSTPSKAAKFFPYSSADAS", "assay": "Inhibition of LOK K2 labeling site harbouring DLKAGNVLMTLEGDIR in human Huh-7 cells at 10 uM by KiNativ Profiling analysis relative to control", "type": "cell-based"}, "[9]": {"molecular_target": "Ribosomal protein S6 kinase alpha-3 (Homo sapiens) (UniProt P51812)", "sequence (P51812 whole entry, the tested form may be a part)": "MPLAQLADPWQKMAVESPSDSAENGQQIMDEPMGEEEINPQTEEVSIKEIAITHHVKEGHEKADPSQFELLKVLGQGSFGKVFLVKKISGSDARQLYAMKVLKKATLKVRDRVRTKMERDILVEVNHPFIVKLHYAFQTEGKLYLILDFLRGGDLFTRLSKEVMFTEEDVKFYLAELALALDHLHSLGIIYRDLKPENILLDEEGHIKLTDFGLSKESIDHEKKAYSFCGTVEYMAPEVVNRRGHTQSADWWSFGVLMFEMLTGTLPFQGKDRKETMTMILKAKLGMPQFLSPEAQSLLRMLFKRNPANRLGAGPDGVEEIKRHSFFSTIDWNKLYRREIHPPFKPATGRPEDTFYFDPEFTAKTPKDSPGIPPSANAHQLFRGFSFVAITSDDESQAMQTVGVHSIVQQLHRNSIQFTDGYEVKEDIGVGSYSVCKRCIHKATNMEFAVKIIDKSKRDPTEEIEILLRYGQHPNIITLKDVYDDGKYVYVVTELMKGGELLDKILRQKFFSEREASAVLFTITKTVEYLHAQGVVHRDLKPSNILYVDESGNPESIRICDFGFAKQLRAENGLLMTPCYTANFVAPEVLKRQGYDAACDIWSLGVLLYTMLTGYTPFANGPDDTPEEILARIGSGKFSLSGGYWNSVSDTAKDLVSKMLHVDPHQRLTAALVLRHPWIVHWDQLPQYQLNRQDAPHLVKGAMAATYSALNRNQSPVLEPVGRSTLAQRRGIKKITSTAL", "assay": "Inhibition of RSK2 domain2 Lys1 labeling site in human Huh-7 cells at 1 uM by KiNativ Profiling analysis relative to control", "type": "cell-based"}, "[10]": {"molecular_target": "Tyrosine-protein kinase CSK (Homo sapiens, UniProt P41240)", "sequence (P41240 2-450 limits assumed)": "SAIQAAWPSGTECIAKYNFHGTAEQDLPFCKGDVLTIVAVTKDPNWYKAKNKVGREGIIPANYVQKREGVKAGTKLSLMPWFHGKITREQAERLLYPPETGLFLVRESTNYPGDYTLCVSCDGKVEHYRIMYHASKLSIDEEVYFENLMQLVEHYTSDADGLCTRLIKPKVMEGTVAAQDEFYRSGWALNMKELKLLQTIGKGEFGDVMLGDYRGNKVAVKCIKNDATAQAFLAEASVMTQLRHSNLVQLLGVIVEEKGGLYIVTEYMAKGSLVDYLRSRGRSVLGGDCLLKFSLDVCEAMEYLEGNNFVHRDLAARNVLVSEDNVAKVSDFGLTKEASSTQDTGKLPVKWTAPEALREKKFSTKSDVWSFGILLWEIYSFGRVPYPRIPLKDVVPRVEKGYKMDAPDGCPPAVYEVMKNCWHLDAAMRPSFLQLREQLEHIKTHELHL", "assay": "Inhibition of CSK ACT labeling site harbouring VSDFGLTKEASSTQDTGK in human Huh-7 cells at 1 uM by KiNativ Profiling analysis relative to control", "type": "cell-based"}, "[11]": {"molecular_target": "Ribosomal protein S6 kinase alpha-3 (Homo sapiens) (UniProt P51812)", "assay": "Inhibition of RSK2 domain1 ACT labeling site harbouring LTDFGLSKESIDHEKK in human Huh-7 cell lysate at 1 uM by KiNativ Profiling analysis relative to control", "type": "subcellular"}, "[12]": {"molecular_target": "T2, NUAK family SNF1-like kinase 1 (Homo sapiens) (UniProt O60285)", "T2 sequence (whole entry)": "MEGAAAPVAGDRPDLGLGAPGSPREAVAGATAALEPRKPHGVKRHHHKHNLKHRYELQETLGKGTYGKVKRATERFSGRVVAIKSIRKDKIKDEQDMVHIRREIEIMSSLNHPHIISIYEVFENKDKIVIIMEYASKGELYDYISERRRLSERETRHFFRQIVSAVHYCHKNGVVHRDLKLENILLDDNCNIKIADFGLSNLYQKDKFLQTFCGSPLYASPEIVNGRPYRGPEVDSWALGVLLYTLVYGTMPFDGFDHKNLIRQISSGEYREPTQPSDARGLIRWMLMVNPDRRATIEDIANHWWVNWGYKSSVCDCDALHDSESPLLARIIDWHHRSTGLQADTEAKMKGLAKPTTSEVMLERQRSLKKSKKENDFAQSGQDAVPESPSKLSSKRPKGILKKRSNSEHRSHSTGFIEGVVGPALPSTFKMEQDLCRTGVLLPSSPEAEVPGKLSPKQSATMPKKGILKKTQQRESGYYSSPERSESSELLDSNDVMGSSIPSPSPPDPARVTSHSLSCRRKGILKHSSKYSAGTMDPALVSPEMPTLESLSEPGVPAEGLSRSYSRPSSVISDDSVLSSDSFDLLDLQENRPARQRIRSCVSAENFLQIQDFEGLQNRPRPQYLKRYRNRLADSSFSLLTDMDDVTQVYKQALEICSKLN", "assay": "Inhibition of NuaK1 Lys2 labeling site in human Huh-7 cells at 1 uM by KiNativ Profiling analysis relative to control", "type": "cell-based"}, "[13]": {"molecular_target": "T3, Serine/threonine-protein kinase 3 (Homo sapiens) (UniProt Q13188)", "T3 sequence (whole entry)": "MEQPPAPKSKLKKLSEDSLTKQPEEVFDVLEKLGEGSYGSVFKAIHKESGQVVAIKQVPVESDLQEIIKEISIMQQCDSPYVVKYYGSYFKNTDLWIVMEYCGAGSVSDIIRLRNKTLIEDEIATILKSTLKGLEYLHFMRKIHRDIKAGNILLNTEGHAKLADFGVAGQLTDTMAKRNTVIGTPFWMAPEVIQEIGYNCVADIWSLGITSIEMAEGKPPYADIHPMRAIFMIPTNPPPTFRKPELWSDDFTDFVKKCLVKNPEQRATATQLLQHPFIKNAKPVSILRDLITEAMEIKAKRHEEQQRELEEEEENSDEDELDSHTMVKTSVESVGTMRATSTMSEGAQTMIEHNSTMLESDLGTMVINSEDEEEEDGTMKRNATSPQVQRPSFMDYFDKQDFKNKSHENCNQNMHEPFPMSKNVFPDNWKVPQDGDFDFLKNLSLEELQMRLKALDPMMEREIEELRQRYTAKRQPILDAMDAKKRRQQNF", "assay": "Inhibition of MST2 Lys2 labeling site harbouring DIKAGNILLNTEGHAK in human Huh-7 cell lysate at 1 uM by KiNativ Profiling analysis relative to control", "type": "subcellular"}}, "note": "Calls of active or inactive are those of the source. The calls are words filed in the database; no cut-off is given here."}
{"smiles": "CCN1CCN(Cc2ccc(NC(=O)c3ccc(C)c(/C=C/c4cnc5[nH]ccc5c4OC)c3)cc2C(F)(F)F)CC1", "values": [{"measurement": "residual activity", "setting": "[1]", "value": 76, "unit": "%"}, {"measurement": "inhibition", "setting": "[2]", "value": 26.3, "unit": "%"}, {"measurement": "inhibition", "setting": "[3]", "value": 73, "unit": "%"}, {"measurement": "inhibition", "setting": "[4]", "value": -4.1, "unit": "%"}]}
{"smiles": "CCN1CCN(Cc2ccc(NC(=O)c3ccc(C)c(Oc4ccnc5[nH]ccc45)c3)cc2C(F)(F)F)CC1", "values": [{"measurement": "inhibition", "setting": "[5]", "value": "inactive"}, {"measurement": "inhibition", "setting": "[6]", "value": 13, "unit": "%"}, {"measurement": "inhibition", "setting": "[7]", "value": -3.7, "unit": "%"}, {"measurement": "inhibition", "setting": "[8]", "value": 13.5, "unit": "%"}]}
{"smiles": "CNc1cc(Oc2cc(C(=O)Nc3cc(N4CCN(C)CC4)cc(C(F)(F)F)c3)ccc2C)ncn1", "values": [{"measurement": "inhibition", "setting": "[9]", "value": 4.1, "unit": "%"}, {"measurement": "inhibition", "setting": "[10]", "value": 16.6, "unit": "%"}, {"measurement": "inhibition", "setting": "[11]", "value": -2.2, "unit": "%"}, {"measurement": "inhibition", "setting": "[12]", "value": 20.5, "unit": "%"}, {"measurement": "inhibition", "setting": "[13]", "value": 8.2, "unit": "%"}]}
